From patent publication US5585382A, “Polycyclic and heterocyclic chromophores for bis-imide tumoricidals” (The DuPont Merck Pharmaceutical Company, priority 1995, dated 1996)
Read-outs that look alike come from different tables or passages of the source.

What was measured:
[1] = system: Murine leukemia L1210 cells; test: In vitro growth inhibition of L1210 cells (MTT, 72 hr); assay type: cell-based; details: Mus musculus, read-out: L1210 IC50
How it was run: (§1)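 Cells seeded on day 0 (1×10^3 L1210 or 8×10^2 Clone A per well), graded compound concentrations added on day 1, then 72 hr at 37 °C. MTT 4 h, formazan dissolved in acidic isopropanol, read at 570/630 nm; IC50 from curve fit as half-maximal inhibition of population doublings, eight replicates.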

[2] = system: Clone A human colon cancer cells; test: In vitro growth inhibition of Clone A cells (MTT, 72 hr); assay type: cell-based; details: read-out: Clone A IC50
How it was run: as §1

DLD-2 human colon tumor = test: In vivo human tumor xenograft DLD-2 in nude mice; details: for Tumor Growth Inhibition activity against DLD-2 (in words): NCI criteria
Text: (§2) The DLD-2 human colon tumor and MX-1 human mammary carcinoma, were originally obtained from a surgically-removed primary colon carcinoma or breast tumor respectively. The human tumor lines were maintained by serial passage in athymic nude mice. The MX-1 human mammary carcinoma is an established tumor used by the NCI. The DLD-2 human colon tumor has been well characterized. (Dexter, D. L.; Spremulli, E. N.; Matook, G. M.; Diamond, I.; Calabresi, P. Cancer Research 1982, 42, 5010; Dexter, D. L.; Barbosa, J. A.; Calabresi, P. Cancer Research 1979, 39, 1020.)
(§3) The mice used in these experiments were outbred Swiss mice or CD-1 mice bearing the nude (nu/nu) gene. On Day 0, male and female mice weighing 22-30 g are inoculated with 0.2 mL of a 25% tumor mince. This mince is prepared by mincing fresh tumor tissue, grown subcutaneously in passage mice, in sterile physiological saline. Palpable tumors weighing approximately 50 mg appear in the mice within 7-10 days after inoculation. The mice are pair matched by tumor weight and sex into groups of ten each and the test compounds and vehicle control are administered intravenously (i.v.) once daily for nine consecutive days. A >20% decrease in body weight on Day 5 following compound administration is considered an indication of toxicity. Tumor measurements and body weights are recorded once a week. Fifteen to eighteen days after the initial injection the mice are weighed, sacrificed, and the tumors excised and weighed.
(§4) The efficacy of the test compounds is determined by the extent of tumor growth inhibition in treated versus vehicle-treated control mice. Initial tumor weights (mg) are calculated from the tumor dimensions (mm) obtained from caliper measurements, using the formula for a prolate ellipsoid (mg of tumor weight=(length×width^2)/2). Net tumor weights are calculated for each of the treated groups and the vehicle-treated control group by subtracting the initial tumor weight from the final tumor weight (Day 15-18). Results are expressed as a percentage decrease relative to the mean tumor weight for the control vehicle-treated group.
(§5) Tumor Growth Inhibition= [formula]
(§6) The evaluation criteria of the National Cancer Institute for activity in in vivo cancer models were used. Tumor growth inhibition of 58-89% against the various xenografts is considered moderate activity, and inhibition of ≥90% is considered good to excellent activity. Actual tumor regressions (IR=incomplete regression; FR=full regression) indicate excellent to outstanding activity.

[3] = system: MX-1 human mammary carcinoma; test: In vivo human tumor xenograft MX-1 in nude mice; details: for Tumor Growth Inhibition activity against MX-1 (in words): NCI criteria
Text: as §2, §3, §4, §5, §6

physchem = details: water
[4] = Mus musculus, DLD2, iv, 216 h, read-out: DLD-2 percent tumor growth inhibition
[5] = i.v. once daily for nine days, nude mice
[6] = Mus musculus, iv, 216 h, read-out: MX-1 tumor regressions, IR=incomplete regression
[7] = 12.5 mg/kg, i.v. once daily for nine days, nude mice
[8] = Mus musculus, iv, 216 h, read-out: MX-1 percent tumor growth inhibition
[9] = Mus musculus, DLD2, iv, 216 h, 12.5 mg/kg, i.v. once daily for nine days, nude mice, read-out: DLD-2 percent tumor growth inhibition

Row | SMILES | IC50 ([1]; L1210, 72 h) | IC50 ([2]; 72 h) | Tumor Growth Inhibition activity against DLD-2 (in words) (DLD-2 human colon tumor; [5]) | Tumor Growth Inhibition activity against MX-1 (in words) [3, 5] | solubility (Solubility in water) | IC50 ([1]; L1210 cells, 72 hr, MTT) | IC50 ([2]; Clone A cells, 72 hr, MTT) | further results
1 | CS(=O)(=O)O.CS(=O)(=O)O.C[C@H](CNCCNC[C@@H](C)N1C(=O)c2cc([N+](=O)[O-])cc3c2c(cc2cccnc23)C1=O)N1C(=O)c2cc([N+](=O)[O-])cc3c2c(cc2cccnc23)C1=O [Example 8, (R,R)-1,2-bis-[2-(3-Nitro-5-azaphenanthrene-1,10-dicarboximido)propylamino]ethane Dihydromethanesulfonate] | 30 ng/mL | 8 ng/mL | moderate to excellent | moderate to excellent | 4000 µg/mL |  |  | DLD-2 tumor regressions, IR=incomplete regression (DLD-2 human colon tumor; 10 mg/kg, i.v. once daily for nine days, nude mice): 2/9; inhibition in vivo at 10 mg/kg (DLD-2 human colon tumor; [4]): 95%; MX-1 tumor regressions, FR=full regression ([3]; 5 mg/kg, i.v. once daily for nine days, nude mice): 2/9; responders at 5 mg/kg [3, 6]: 77.8%
2 | CS(=O)(=O)O.CS(=O)(=O)O.Cc1cnc2c(c1)cc1c3c(cc([N+](=O)[O-])cc32)C(=O)N([C@H](C)CNCCNC[C@@H](C)N2C(=O)c3cc([N+](=O)[O-])cc4c3c(cc3cc(C)cnc34)C2=O)C1=O [Example 13, (R, R) -1,2-bis-[2-(3-Nitro-7-methyl-5-azaphenanthrene-1, 10-dicarboximido)propylamino]ethane Dihydromethanesulfonate] | 65 ng/mL | 30 ng/mL | moderate to excellent | moderate to excellent | 7100 µg/mL |  |  | DLD-2 tumor regressions, IR=incomplete regression (DLD-2 human colon tumor; [7]): 1/9; inhibition in vivo at 12.5 mg/kg (DLD-2 human colon tumor; [4]): 90%; inhibition in vivo at 12.5 mg/kg [3, 8]: 99%; responders at 12.5 mg/kg [3, 6]: 77.8%
3 | CS(=O)(=O)O.CS(=O)(=O)O.Cc1cnc2c(c1)cc1c3c(cc([N+](=O)[O-])cc32)C(=O)N([C@H](C)CNC[C@@H](C)NC[C@@H](C)N2C(=O)c3cc([N+](=O)[O-])cc4c3c(cc3cc(C)cnc34)C2=O)C1=O [Example 25, (R,R)-1,2-bis-[2-(3-Nitro-7-methyl-5-azaphenanthrene-1, 10dicarboximido)propylamino]-(R)-1-methylethane Dihydromethanesulfonate] | 48 ng/mL | 10 ng/mL |  | moderate to excellent | 4820 µg/mL |  |  | inhibition in vivo at 25 mg/kg (DLD-2 human colon tumor; [4]): 97%; MX-1 tumor regressions, FR=full regression ([3]; 25 mg/kg, i.v. once daily for nine days, nude mice): 1/8; inhibition in vivo at 25 mg/kg [3, 8]: 99%; responders at 25 mg/kg [3, 6]: 75%
4 | CS(=O)(=O)O.O=C1c2cccc3cc([N+](=O)[O-])cc(c23)C(=O)N1CCCCNCCCN1C(=O)c2cc([N+](=O)[O-])cc3c2c(cc2cccnc23)C1=O [Example 111, 4-[3-(3-Nitro-5-azaphenanthrene-1,10-dicarboximido)propylamino]-1-(3-nitronaphthalene-1,8-dicarboximido)butane Hydromethanesulfonate] | 3 ng/mL | 2 ng/mL | moderate to excellent | moderate to excellent | 240 µg/mL |  |  | DLD-2 tumor regressions, IR=incomplete regression (DLD-2 human colon tumor; 18 mg/kg, i.v. once daily for nine days, nude mice): 2/7; inhibition in vivo at 18 mg/kg (DLD-2 human colon tumor; [4]): 99%; MX-1 tumor regressions, FR=full regression ([3]; 20 mg/kg, i.v. once daily for nine days, nude mice): 1/9; inhibition in vivo at 20 mg/kg [3, 8]: 99%; responders at 20 mg/kg [3, 6]: 77.8%
5 | CS(=O)(=O)O.CS(=O)(=O)O.Nc1cc2c3c(cc4cccnc4c3c1)C(=O)N(CCCNCCCCN1C(=O)c3cccc4cc([N+](=O)[O-])cc(c34)C1=O)C2=O [Example 112, 4-[3-(3-Amino-5-azaphenanthrene-1,10-dicarboximido)propylamino]-1-(3-nitronaphthalene-1,8-dicarboximido)butane Dihydromethanesulfonate] |  |  |  | moderate to excellent | 7500 µg/mL | 20 ng/mL | 7 ng/mL | inhibition in vivo at 12.5 mg/kg (DLD-2 human colon tumor; [9]): 48%; inhibition in vivo at 25 mg/kg ([3]; Mus musculus, iv, 216 h, 25 mg/kg, i.v. once daily for nine days, nude mice, read-out: MX-1 percent tumor growth inhibition): 98%; responders at 25 mg/kg ([3]; Mus musculus, iv, 216 h, 25 mg/kg, i.v. once daily for nine days, nude mice, read-out: MX-1 tumor regressions, IR=incomplete regression (converted)): 37.5%
6 | CS(=O)(=O)O.O=C1c2cccc3cc([N+](=O)[O-])cc(c23)C(=O)N1CCCCNCCCN1C(=O)c2cccc3c2c(cc2ncccc23)C1=O [Example 114, 4-[3-(8-Azaphenanthrene-1,10-dicarboximido)propylamino]-1-(3-nitronaphthalene-1,8-dicarboximido)butane Hydromethanesulfonate] |  |  | moderate to excellent | moderate to excellent | 680 µg/mL | < 10 ng/mL | 1 ng/mL | DLD-2 tumor regressions, IR=incomplete regression (DLD-2 human colon tumor; [7]): 4/8; inhibition in vivo at 12.5 mg/kg (DLD-2 human colon tumor; [9]): 99%; inhibition in vivo at 12 mg/kg ([3]; Mus musculus, iv, 216 h, 12 mg/kg, i.v. once daily for nine days, nude mice, read-out: MX-1 percent tumor growth inhibition): 98%; responders at 12 mg/kg ([3]; Mus musculus, iv, 216 h, 12 mg/kg, i.v. once daily for nine days, nude mice, read-out: MX-1 tumor regressions, IR=incomplete regression (converted)): 62.5%
7 | CS(=O)(=O)O.O=C1c2cccc3cc([N+](=O)[O-])cc(c23)C(=O)N1CCCCNCCCN1C(=O)c2cc([N+](=O)[O-])cc3c2c(cc2ncccc23)C1=O [Example 115, 4-[3-(3-Nitro-8-azaphenanthrene-1,10-dicarboximido)propylamino]-1-(3-nitronaphthalene-1,8dicarboximido)butane Hydromethanesulfonate] | 3 ng/mL | 1 ng/mL | moderate to excellent | moderate to excellent | 150 µg/mL |  |  | inhibition in vivo at 10 mg/kg (DLD-2 human colon tumor; [4]): 90%; inhibition in vivo at 6 mg/kg [3, 8]: 95%; responders at 6 mg/kg [3, 6]: 12.5%
8 | CS(=O)(=O)O.CS(=O)(=O)O.C[C@H](CNCCNC[C@@H](C)N1C(=O)c2cccc3c2c(cc2ccncc23)C1=O)N1C(=O)c2cccc3cc([N+](=O)[O-])cc(c23)C1=O [Example 118, (R,R)-1-[2-(6-Azaphenanthrene-1,10-dicarboximido)propylamino]-2-[2-(3-nitronaphthalene-1,8-dicarboximido)propylamino]ethane Dihydromethanesulfonate] |  |  | moderate to excellent | moderate to excellent |  | 29 ng/mL | 0.8 ng/mL | DLD-2 tumor regressions, IR=incomplete regression (DLD-2 human colon tumor; 6 mg/kg, i.v. once daily for nine days, nude mice): 7/9; inhibition in vivo at 6 mg/kg (DLD-2 human colon tumor; Mus musculus, DLD2, iv, 216 h, 6 mg/kg, i.v. once daily for nine days, nude mice, read-out: DLD-2 percent tumor growth inhibition): 99%; responders at 3 mg/kg ([3]; Mus musculus, iv, 216 h, 3 mg/kg, i.v. once daily for nine days, nude mice, read-out: MX-1 tumor regressions, IR=incomplete regression (converted)): 100%; solubility (physchem): 65100 µg/mL
